# Test results taken from patent publication US10189839B2, “Tricyclic imidazole compounds as inhibitors of tryptophan hydroxylase” (ACTELION PHARMACEUTICALS LTD, priority 2013, dated 2019).
# Target: T1, full length human TPH1 (Homo sapiens, UniProt P17752)
# T1 construct: To generate the enzyme, full length human TPH1 is cloned into the plasmid pET20b(+); made in house; host or cells: E. coli
# T1 sequence (P17752 1-444): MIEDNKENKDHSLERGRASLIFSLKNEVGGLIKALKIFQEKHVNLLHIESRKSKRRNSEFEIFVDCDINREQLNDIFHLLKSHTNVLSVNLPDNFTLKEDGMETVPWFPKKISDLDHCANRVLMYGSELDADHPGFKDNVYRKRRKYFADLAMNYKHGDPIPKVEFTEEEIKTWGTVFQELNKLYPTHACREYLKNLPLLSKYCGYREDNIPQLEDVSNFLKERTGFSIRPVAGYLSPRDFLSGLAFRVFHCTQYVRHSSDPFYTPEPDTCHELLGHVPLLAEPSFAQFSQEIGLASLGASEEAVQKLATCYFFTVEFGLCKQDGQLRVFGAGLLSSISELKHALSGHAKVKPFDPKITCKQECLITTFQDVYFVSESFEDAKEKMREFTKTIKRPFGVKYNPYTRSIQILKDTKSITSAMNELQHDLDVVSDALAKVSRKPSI
# Assay: Biochemical in vitro assay using fluorescence readout (TPH1 enzyme activity)
# Conditions: Table 1, mean where determined several times
# Method in brief: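 E. coli-expressed full-length human TPH1 (40-80 nM), affinity- and size-exclusion-purified, incubated 60 min at 15° C. in 0.1M Tris-HCl pH 7.6 with 1 mM DTT, 0.2 mg/ml catalase, 100 μM 6-methyltetrahydropterine and 40 μM L-tryptophan. 5-Hydroxy-L-tryptophan read by fluorescence (ex 300/em 540 nm) after HClO4 quench; IC50 versus vehicle, mean where repeated.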
row,Compound,IC50 [nM]
1,"CS(=O)(=O)Nc1ccc(OCC(=O)N2CCc3nc4n(c3C2c2ncc(C3CC3)cc2F)CCCC4)c(Cl)n1 (stereo not shown) [Example 1.3.1, N-(6-chloro-5-(2-(1-(5-cyclopropyl-3-fluoropyridin-2-yl)-3,4,6,7,8,9-hexahydroimidazo[1,2-a:5,4-c′]dipyridin-2(1H)-yl)-2-oxoethoxy)pyridin-2-yl)methanesulfonamide]",63
2,"CN(C)C(=O)c1ccc(OCC(=O)N2CCc3nc4n(c3C2c2sc(C(=O)N(C)C)cc2F)CCCC4)c(Cl)n1 (stereo not shown) [Example 1.4.1, 6-chloro-5-(2-(1-(5-(dimethylcarbamoyl)-3-fluoro-thiophen-2-yl)-3,4,6,7,8,9-hexahydroimidazo[1,2-a:5,4-c′]dipyridin-2(1H)-yl)-2-oxoethoxy)-N,N-dimethyl-picolinamide]",55
3,"CC(C)(C)OC(=O)N1CCn2c(nc3c2C(c2ccc(C4CC4)cc2F)N(C(=O)COc2ccc(N4CCOCC4)cc2Cl)CC3)C1 (stereo not shown) [Example 5.2.2, tert-butyl 2-(2-(2-chloro-4-morpholinophenoxy)acetyl)-1-(4-cyclopropyl-2-fluorophenyl)-1,2,3,4,8,9-hexahydropyrido[4′,3′:4,5]imidazo[1,2-a]pyrazine-7(6H)-carboxylate]",121
4,"CS(=O)(=O)Nc1ccc(OCC(=O)N2CCc3nc4n(c3C2c2sccc2F)CCOC4)c(Cl)n1 (stereo not shown) [Example 6.6.3, N-(6-chloro-5-(2-(6-(3-fluorothiophen-2-yl)-3,4,8,9-tetrahydro-1H-pyrido[4′,3′:4,5]imidazo[2,1-c][1,4]oxazin-7(6H)-yl)-2-oxoethoxy)pyridin-2-yl)methanesulfonamide]",160
5,"Cc1cnc(C2c3c(nc4n3CCCC4)CCN2C(=O)COc2ccc(N(C)S(C)(=O)=O)nc2Cl)c(F)c1 (stereo not shown) [Example 1.6.6, N-(6-chloro-5-(2-(1-(3-fluoro-5-methylpyridin-2-yl)-3,4,6,7,8,9-hexahydroimidazo[1,2-a:5,4-c′]dipyridin-2(1H)-yl)-2-oxoethoxy)pyridin-2-yl)-N-methylmethanesulfonamide]",44
6,"Cc1nc(C(C)C)sc1C1c2c(nc3n2CCCC3)CCN1C(=O)COc1ccc(NS(C)(=O)=O)nc1Cl (stereo not shown) [Example 1.12.1, N-(6-chloro-5-(2-(1-(2-isopropyl-4-methylthiazol-5-yl)-3,4,6,7,8,9-hexahydroimidazo[1,2-a:5,4-c′]dipyridin-2(1H)-yl)-2-oxoethoxy)pyridin-2-yl)methanesulfonamide]",819

# These reach a lower IC50. Values come first.
row,IC50 [nM],Compound
1,27,"Cc1ccc(C2c3c(nc4n3CCCC4)CCN2C(=O)COc2ccc(C(=O)N(C)C3CC3)nc2Cl)c(F)c1F (stereo not shown) [Example 1.9.3, 6-chloro-N-cyclopropyl-5-(2-(1-(2,3-difluoro-4-methyl-phenyl)-3,4,6,7,8,9-hexahydroimidazo[1,2-a:5,4-c′]di-pyridin-2(1H)-yl)-2-oxoethoxy)-N-methylpicolinamide]"
2,20,"CN(C(=O)c1ccc(OCC(=O)N2CCc3nc4n(c3C2c2ccc(C3CC3)cc2F)CCCC4)c(Cl)n1)C1CC1 (stereo not shown) [Example 1.8.1, 6-chloro-N-cyclopropyl-5-(2-(1-(4-cyclopropyl-2-fluorophenyl)-3,4,6,7,8,9-hexahydroimidazo[1,2-a:5,4-c′]dipyridin-2(1H)-yl)-2-oxoethoxy)-N-methylpicolinamide]"
3,37,"CN(C)C(=O)c1ccc(OCC(=O)N2CCc3nc4n(c3C2c2sc(C(=O)N(C)C)cc2F)CCOC4)c(Cl)n1 (stereo not shown) [Example 6.3.1, 6-chloro-5-(2-(6-(5-(dimethylcarbamoyl)-3-fluoro-thiophen-2-yl)-3,4,8,9-tetrahydro-1H-pyrido[4′,3′:4,5]imidazo[2,1-c][1,4]oxazin-7(6H)-yl)-2-oxoethoxy)-N,N-dimethylpicolinamide]"
4,15,"CN(C)C(=O)c1ccc(OCC(=O)N2CCc3nc4n(c3C2c2ccc(Cl)cc2F)CCCC4)c(Cl)n1 (stereo not shown) [Example 1.1.1, 6-chloro-5-(2-(1-(4-chloro-2-fluorophenyl)-3,4,6,7,8,9-hexahydroimidazo[1,2-a:5,4-c′]dipyridin-2(1H)-yl)-2-oxoethoxy)-N,N-dimethylpicolinamide]"
